Here are results for 19 compounds from US11572372B2, “Anti-HBVtetrahydroisoxazolo[4,3-c]pyridine compounds” (CHIA TAI TIANQING PHARMACEUTICAL GROUP CO., LTD., priority 2017, dated 2023).

Series [1] deals with HBV DNA in HepG2.2.15 cells. As to the kind of experiment: In vitro anti-HBV activity assay (HBV DNA in HepG2.2.15 supernatant, qPCR). It is filed as cell-based. The conditions noted are these: Hepatitis B virus, HepG2.2.15, 192 h; inhibition of HBV DNA in supernatant, 8 days culture. The procedure:
1) 100 μL of HepG2.2.15 cells were seeded at a number of 1.2×10^5 cells per well into a 96-well cell culture plate, and then the cells were cultured in a 37° C. incubator with 5% carbon dioxide (CO2) overnight. On day 2, the compounds to be tested were diluted with DMSO in 3-fold gradient to eight concentrations in total. Then the compounds were diluted 100-fold with culture medium, and 100 μL of the diluted compounds were taken and added to the cell-containing plate in a final volume of 200 μL, and the final concentration of DMSO was 0.5%, and two duplicate wells were used. The cells were cultured in a 37° C. incubator with 5% CO2 for 3 days. On day 5, the solutions in the cell culture plate were replaced with fresh culture medium containing the same concentrations of compounds. When culture was performed for 8 days, cell culture plate supernatant was collected for the extraction of HBV DNA.
2) Detection of HBV DNA by real-time quantitative PCR: the total DNA in the supernatant was extracted with QIAamp 96 DNA Blood Kit, and the content of HBV DNA was detected by quantitative PCR using HBV specific primers and probes. 20 μL PCR pre-mixed solution and 5 μL HBV DNA sample or HBV plasmid standard sample were added to a quantitative PCR plate for reaction. The HBV plasmid standard sample was diluted in 10-fold gradient to seven concentrations from 10^7 to 10 copies/μL. The quantitative PCR reaction procedure was as follows: pre-denaturation at 95° C. for 10 minutes; denaturation at 95° C. for 15 seconds, reaction at 60° C. for 1 minute, and this cycle was repeated 40 times. The inhibition rate of each well against HBV DNA was calculated according to the following equation, and the inhibition rate data of the compounds were subjected to a non-linear fitting analysis using GraphPad Prism software to obtain EC50 values of the compounds. HBV DNA inhibition rate %=(1−copy number of HBV DNA of the sample/copy number of HBV DNA of DMSO control)*100% The assay results are shown in Table 1 below.
On the technique in general: Real-time PCR tracks product formation cycle by cycle.

The nature of series [2]: Pharmacokinetic study for mouse (single intravenous or gavage administration). It is filed as in vivo, mice. The conditions noted are these: for clearance / half-life / AUC(0-t) / Vd / Cmax / Tmax: plasma; for AUC(0-t): read-out: AUC0-24 h; for Vd: read-out: Vdss. As for the experimental part:
This experiment aims to evaluate the pharmacokinetic behavior of the compounds after a single intravenous or gavage administration in mice. As for the intravenous administration, the compounds were formulated into 0.5 mg/mL clear solutions, vehicle: 5% DMSO/5% 12-hydroxy stearate (solutol)/90% water; as for the gavage administration, the compounds were formulated into 2 mg/mL suspensions, vehicle: 0.5% sodium carboxymethylcellulose/0.2% Tween 80/99.3% water.
The concentrations of the compounds in plasma were determined by high-performance liquid chromatography-tandem mass spectrometry (LC-MS/MS). The retention time, chromatogram acquisition and integration of the chromatograms of the compounds and the internal standard (diclofenac) were processed using the software Analyst (Applied Biosystems), and data statistics were processed using the software Watson LIMS (Thermo Fisher Scientific) or Analyst (Applied Biosystems). The concentration unit of the analyte in the sample is ng/mL, 3 significant digits were retained, and all the values represented by percentages (e.g., % deviation and % coefficient of variation, etc.) have one decimal place. Each calibration curve contains at least 6 concentration levels. The calibration standard samples were formulated using stock solutions from different sources from the quality control samples. If the deviation between the calculated concentration of a calibration standard sample and the indicated value exceeds ±15.0% (the lower limit of quantitation exceeds ±20.0%), such standard sample should be excluded in regression analysis. The excluded calibration standard samples should be less than 25%, and each calibration curve contains at least 6 calibration standard samples that meet the acceptable standard. If the calibration standard samples at the lower and upper limits of quantification need to be excluded, the upper and lower limits of quantification of this batch of analytes will be increased and decreased accordingly.
Plasma concentrations were processed using a non-compartmental model of the WinNonlin™ Version 6.3 (Pharsight, Mountain View, Calif.) pharmacokinetic software, and pharmacokinetic parameters were calculated using the linear logarithmic trapezoidal method. The pharmacokinetic parameters to be calculated include, but are not limited to (if the data is not allowed), T1/2, Vdss, CL, AUC0-24h of the intravenous group; Cmax, Tmax, AUC0-24h and bioavailability (F %) of the oral gavage group.

Series [3] deals with HBV. Description: In vivo activity assay of HBV DNA in mouse plasmid model of tail vein high-pressure injection (Example 23). The conditions noted are these: 60 mg/Kg, gavage. Further details: species or system female BABL/c mice. The procedure: The purpose of this study was to test the inhibitory effect of the compound (Example 23) against HBV in mice through a mouse model of high-pressure tail vein injection. In this experiment, female BABL/c mice were used, and the mice were 6-7 weeks old. The HBV plasmid DNA was extracted by using pAAV2-HBV 1.3 mer with Qiagen EndoFree Plasmid Giga kit at a concentration of 1000 ng/μL. The resulting solution was diluted with normal saline before use and stored at 4° C. until use.

Structures are written as SMILES. pEC50: −log10 of the molar value. Where two headings read alike, the source gives them in different places.

Usually pEC50 stands for the negative decadic logarithm of the EC50, by convention in mol/L. A higher pEC50 goes with a low EC50. By half-life is commonly meant the time needed for the level to fall by half in the phase considered. In general, Cmax refers to the peak of the concentration-time curve. In general, Tmax refers to the time from dosing to the highest level. In series [1], `C[C@H]1Cc2noc(-c3ccc(F)cn3)c2CN1C(=O)Nc1cc(F)c(F)c(F)c1` [Example 1] gave a pEC50 of 8.28. In addition, in series [2] (oral gavage, 10 mg/Kg), the F came to 76.1%, the peak level (Cmax) was 4.26 µM, the Tmax came to 1 h and the AUC(0-t) came to 47.2 µM·h. Further, in series [2] (intravenous injection, 1 mg/Kg), the clearance is 5.8 mL/min/kg, the half-life was 5.62 h, the AUC(0-t) stood at 6.71 µM·h and the Vd was 2.77 L/kg.

`C[C@H]1Cc2noc(-c3ccccc3)c2CN1C(=O)Nc1cc(F)c(F)c(F)c1` [Example 2]: the negative logarithm of the EC50 (pEC50) in series [1] is 7.53.

Compound `C[C@H]1Cc2noc(-c3ccccc3F)c2CN1C(=O)Nc1cc(F)c(F)c(F)c1` [Example 3] had a pEC50 in series [1] of 8.05. This pEC50 lies 0.52 log units higher than the previous one.

`C[C@H]1Cc2noc(-c3ccc(F)cc3)c2CN1C(=O)Nc1cc(F)c(F)c(F)c1` [Example 5] gave a negative-log EC50 (pEC50) in series [1] of 7.61.

`COc1cccc(-c2onc3c2CN(C(=O)Nc2cc(F)c(F)c(F)c2)[C@@H](C)C3)c1` [Example 8] had a negative-log EC50 (pEC50) in series [1] of 7.43.

In turn, `COc1ccc(-c2onc3c2CN(C(=O)Nc2cc(F)c(F)c(F)c2)[C@@H](C)C3)cc1` [Example 9] gave a negative-log EC50 (pEC50) in series [1] of 7.98.

In series [1], `C[C@H]1Cc2noc(-c3ccc(Cl)cc3)c2CN1C(=O)Nc1cc(F)c(F)c(F)c1` [Example 12] gave a negative-log EC50 (pEC50) of 7.16.

Regarding `C[C@H]1Cc2noc(-c3cnccn3)c2CN1C(=O)Nc1cc(F)c(F)c(F)c1` [Example 13], the pEC50 in series [1] is 7.23.

For the compound `C[C@H]1Cc2noc(-c3cscn3)c2CN1C(=O)Nc1cc(F)c(F)c(F)c1` [Example 15], the pEC50 in series [1] is 8.17.

In turn, `C[C@H]1Cc2noc(-c3nccs3)c2CN1C(=O)Nc1cc(F)c(F)c(F)c1` [Example 16] gave a negative logarithm of the EC50 (pEC50) in series [1] of 7.61.

For `C[C@H]1Cc2noc(-c3ccsn3)c2CN1C(=O)Nc1cc(F)c(F)c(F)c1` [Example 18], the pEC50 in series [1] was 7.92.

Consider `C[C@H]1Cc2noc(-c3ccc(F)cc3F)c2CN1C(=O)Nc1ccc(F)c(C#N)c1` [Example 19], for which the negative logarithm of the EC50 (pEC50) in series [1] is 7.98.

As to `C[C@H]1Cc2noc(-c3ccc(F)cc3F)c2CN1C(=O)Nc1ccc(F)c(Cl)c1` [Example 20], in series [1], the negative logarithm of the EC50 (pEC50) is 8.06.

In series [1], `Cc1cc(NC(=O)N2Cc3c(noc3-c3ccc(F)cc3F)C[C@@H]2C)ccc1F` [Example 21] showed a pEC50 of 8.25. This pEC50 and that of the compound before are within 0.2 log units of each other.

`C[C@H]1Cc2noc(-c3ccc(F)cc3F)c2CN1C(=O)Nc1ccnc(Cl)c1` [Example 22] gave a pEC50 in series [1] of 7.45.

With `C[C@H]1Cc2noc(-c3ncccn3)c2CN1C(=O)Nc1ccc(F)c(C#N)c1` [Example 23], the negative logarithm of the EC50 (pEC50) in series [1] was 7.60. The same compound returned a F in series [2] (oral gavage, 3 mg/Kg) of 55.3%. This compound also came in with a clearance in series [2] (intravenous injection, 1 mg/Kg) of 4.36 mL/min/kg. This compound also showed a half-life in series [2] (intravenous injection, 1 mg/Kg) of 3.03 h. Also, the AUC(0-t) was determined as 10 µM·h in series [2] (intravenous injection, 1 mg/Kg) and 16.7 µM·h in series [2] (oral gavage, 3 mg/Kg). Besides, in series [2] (intravenous injection, 1 mg/Kg), the Vd was 1.09 L/kg. The Cmax in series [2] (oral gavage, 3 mg/Kg) was found to be 3.4 µM. Besides, the Tmax in series [2] (oral gavage, 3 mg/Kg) came to 0.5 h. Moreover, the “Log HBV DNA mean value” in series [3] (liver tissue after 7 days of administration, BID, solvent control 6.01) was 4.50 copy number/μL; in series [3] (liver tissue after 7 days of administration, QD, solvent control 6.01), 5.18 copy number/μL; in series [3] (plasma, Day 1, BID, solvent control 2.03), 1.94 copy number/μL; in series [3] (plasma, Day 1, QD, solvent control 2.03) it was 2.10 copy number/μL; in series [3] (plasma, Day 3, BID, solvent control 4.47), 3.02 copy number/μL; in series [3] (plasma, Day 3, QD, solvent control 4.47), 3.15 copy number/μL. In addition, the “Log HBV DNA mean value” in series [3] (plasma, Day 5, BID, solvent control 4.76) came to 2.94 copy number/μL; in series [3] (plasma, Day 5, QD, solvent control 4.76), 3.92 copy number/μL; in series [3] (plasma, Day 7, BID, solvent control 3.53), 2.14 copy number/μL; in series [3] (plasma, Day 7, QD, solvent control 3.53), 3.19 copy number/μL.

`C[C@H]1Cc2noc(-c3ncccn3)c2CN1C(=O)Nc1ccc(F)c(Cl)c1` [Example 24] showed a pEC50 in series [1] of 7.81.

`C[C@H]1Cc2noc(-c3ncccn3)c2CN1C(=O)Nc1cc(F)c(F)c(F)c1` [Example 25] showed a negative logarithm of the EC50 (pEC50) in series [1] of 7.83.

In series [1], `C[C@H]1Cc2noc(-c3ncccn3)c2CN1C(=O)Nc1ccc(F)c(F)c1` [Example 26] showed a pEC50 of 7.72.
